# Measured values reported in patent US11541029B2, “High penetration compositions and their applications” (Techfields Pharma Co., Ltd., priority 2008, dated 2023).
# Like-named read-outs stand apart in the source and are kept apart here.
# Experiments:
# [1] = In vitro penetration rate through human skin, Franz cells; assay type: in vitro ADME
# Protocol: Penetration rates of HPCs through human skin were measured in vitro by Franz cells. A Franz cell has two chambers, a top sample chamber and a bottom receptor chamber.
# Test compounds were diethylaminoethyl N-acetyl-3-(3,4-diacetyloxy-phenyl-L-alanine ester.HCl salt (A), diethylaminopropyl N-acetyl-D-3,5,3′,5′-tetraiodothyronine.HCl salt(B), 1-piperidineethyl 2-[4-(4-chlorobenzoyl)phenoxy]-2-methyl-propinate. HCl salt(C), 3-piperidinemethyl 5-(2,5-dimethylphenoxy)-2,2-dimethylpentanoate.HCl salt(D), diethylaminoethyl (S)-3-(benzoylaminomethyl)-5-methylhexanoate.HCl salt(E), N-acetyl-3-(3,4-diacetyloxy-phenyl-L-alanine(F) sodium salt, N-acetyl-D-3,5,3′,5′-tetraiodothyronine sodium salt(G), 2-[4-(4-chlorobenzoyl)phenoxy]-2-methyl-propinic acid sodium salt(H), 5-(2,5-dimethylphenoxy)-2,2-dimethylpentanoic acid sodium salt(I), and (S)-3-(benzoylaminomethyl)-5-methylhexanoic acid sodium salt(J).
# 10% solution of the test compound in water was used. The amount of a HPC or its parent drug penetrating a skin was determined by high-performance liquid chromatography method. The results were shown in FIG. 8 and apparent flux values of the HPCs and their corresponding parent drugs were summarized in Table 2.
# [2] = tested on: lesions similar to psoriasis generated by Malassezia; assay: Anti-psoriasis activity, Malassezia-induced lesions; assay type: in vivo, Chinese white rabbits; conditions: HPC 5% aq. applied to the lesion areas twice per day
# Protocol: Heavy suspensions of Malassezia [Rosenberg, E. W., et al., Mycopathologia, 72, 147-154 (1980)] were applied to the shaved skin on the backs of Chinese white rabbits (n=4×6) twice (at […]) per day for 2 weeks to generate lesions similar to psoriasis. HPCs (5%, aq.) were applied to the same areas 3 hours (10 am and 6 pm) after the application of Malassezia (7 am and 3 pm). […] HCl, diethylaminoethyl 1,8-diethyl-1,3,4,9-tetrahydropyrano-[3,4-b]indole-1-acetate.HCl, diethylaminoethyl 2-amino-3-(4-bromo-benzoyl)benzeneacetate.HCl, diethylaminoethyl 3-chloro-4-(2-propenyloxy)benzeneacetate. HCl, diethylaminoethyl 1-(4-chlorobenzoyl-5-methoxy-2-methyl-1H-indole-3-acetoxyacetate. HCl, diethylaminoethyl 4-(4-chlorophenyl)-2-phenyl-5-thiazoleacetate.HCl, and diethylaminoethyl 3-(4-chlorophenyl)-1-phenyl-1H-pyrazole-4-acetate.HCl
# SLAC/DB/DB obese mice = assay: Blood glucose and blood lipid levels in DB/DB mice; assay type: in vivo; conditions: 30 mg/kg transdermally once per day
# Protocol: HPCs in the present disclosure lowered blood glucose levels and blood lipid levels in mice models (SLAC/DB/DB, obese mice, n=7). 30 mg/kg of 8% diethylaminoethyl acetylsalicylate.HCl salt (P-1, in 25% ethanol); 4-acetamidophenyl salicylyldimethylaminobutyrate.HCl (P-6, in 25% ethanol), diethylaminoethyl 5-(2,4-difluorophenyl)acetylsalicylate.5-(2,4-difluorophenyl)acetylsalicylic acid salt (P-8, in 25% ethanol), diethylaminoethyl salicylsalicylate.HCl salt (P-9, in 25% ethanol), diethylaminoethyl salicylate.AcOH(P-10, in 25% ethanol), diethylaminoethyl 5-acetamido-acetylsalicylate.HCl(P-58, in 25% ethanol), diethylaminoethyl acetylsalicylsalicylate.HCl salt (P-59, in 25% ethanol), diethylaminoethyl acetylsalicylsalicylsalicylate.HCl salt (P-60, in 25% ethanol) were administered transdermally to the backs (4 cm^2,fur was shaved) of DB/DB mice(SLAC/DB/DB, 10-12 weeks old) once per day (at 8 am) for 5 weeks. The blood glucose levels were measured once per week and blood lipid levels were measured once every other week.
# [3] = tested on: SLAC:NOD-IDDM, type 1 diabetes; assay: Anti-diabetes (type I) activity of HPCs of NSAIAs; assay type: in vivo, mice; conditions: for blood glucose, Baseline: equal to 20 mg/kg of NSAIAs transdermally twice per day for 7 weeks; for blood glucose, Average: fourth week to seventh week, no fasting, equal to 20 mg/kg of NSAIAs transdermally twice per day
# Description: 10% aqueous solution of diethylaminoethyl acetylsalicylate.acetylsalicylic acid salt (P-1, […]); 4-acetamidophenyl salicylyldimethylaminobutyrate. HCl (P-6), diethylaminoethyl 5-(2,4-difluorophenyl)acetylsalicylate.5-(2,4-difluorophenyl)acetylsalicylic acid salt (P-8), diethylaminoethyl salicylsalicylate.AcOH(P-9), diethylaminoethyl 5-acetamido-acetylsalicylate. HCl (P-58), diethylaminoethyl 2-(ρ-isobutylphenyl) propionate.citric acid (P-59), diethylaminoethyl acetylsalicylsalicylate. acetylsalicylsalicylsalicylic acid salt (P-60) (equal to of 20 mg/kg of NSAIAs) were administered transdermally to the shaved back (about 1.5 cm^2) of mice twice per day (at 8 am and 5 pm) for 7 weeks.
# The blood glucose levels were measured once every 3 days at 4:30 pm (no fasting) from the fourth week to the seventh week as shown in Table 11.
# [4] = tested on: GK rats (SLAC/GK, type 2 diabetes); assay: Anti-diabetes (type II) activity of HPCs of NSAIAs in GK rats; assay type: in vivo; conditions: 30 mg/kg transdermally once per day, no fasting
# Protocol: (§1) A HPC in the present disclosure lowered blood glucose levels in rat models (SLAC/GK, type 2 diabetes, n=7). 30 mg/kg of 8% diethylaminoethyl acetylsalicylate.HCl salt (P-1, in 25% ethanol); 4-acetamidophenyl salicylyldimethylaminobutyrate.HCl (P-6, in 25% ethanol), diethylaminoethyl 5-(2,4-difluorophenyl)acetylsalicylate.5-(2,4-difluorophenyl)acetylsalicylic acid salt (P-8, in 25% ethanol), diethylaminoethyl salicylsalicylate.HCl salt (P-9, in 25% ethanol), diethylaminoethyl salicylate.AcOH(P-10, in 25% ethanol), diethylaminoethyl 5-acetamido-acetylsalicylate.HCl(P-58, in 25% ethanol), diethylaminoethyl acetylsalicylsalicylate. HCl salt (P-59, in 25% ethanol), diethylaminoethyl acetylsalicylsalicylsalicylate. HCl salt (P-60, in 25% ethanol) were administered transdermally to the backs (6 cm^2, fur was shaved) of GK rats (SLAC/GK, 14-16 weeks old) and normal SD rats (SLAC/SD, 14-16 weeks old) once per day (at 8 am) for 6 weeks.
# (§2) The blood glucose levels were measured once every 3 days at 4:30 pm (no fasting) from the third week to the sixth week as shown in Table 10a and 10b. […] Moreover, the blood glucose levels of the rats stayed at normal level (6-9 mmol/L, no fasting) after the treatment was stopped for 40 days.
# normal SD rats (SLAC/SD) = assay: Blood glucose in normal SD rats treated with HPCs of NSAIAs; assay type: in vivo; conditions: 30 mg/kg transdermally once per day, no fasting
# Protocol: as §1, §2
# [5] = 10% solution in water, human skin 360-400 μm, Franz cells
smiles,measurement,setting,value
"CCN(CC)CCOC(=O)[C@H](Cc1ccc(OC(C)=O)c(OC(C)=O)c1)NC(C)=O.Cl [diethylaminoethyl N-acetyl-3-(3,4-diacetyloxy-phenyl-L-alanine ester.HCl salt]",apparent flux (in vitro penetration rate),[1],550 μg/cm^2/h
"CCN(CC)CCOC(=O)Cc1cc(C)c(C(=O)c2ccc(Cl)cc2)n1C.Cl [diethylaminoethyl 5-(4-Chlorobenzoyl)-1,4-dimethyl-1H-pyrrole-2-acetate. HCl]",time until lesions healed after the application,[2],10 days
"Cc1ccc(C)c(OCCCC(C)(C)C(=O)OCC2CCCNC2)c1.Cl (stereo not shown) [3-piperidinemethyl 5-(2,5-dimethylphenoxy)-2,2-dimethylpentanoate.HCl salt]",apparent flux (in vitro penetration rate),[1],400 μg/cm^2/h
"CC(=O)N[C@H](Cc1cc(I)c(Oc2cc(I)c(O)c(I)c2)c(I)c1)C(=O)[O-].[Na+] [N-acetyl-D-3,5,3′,5′-tetraiodothyronine sodium salt, reference compound]",apparent flux (in vitro penetration rate),"[1]; human, 10 % solution in water",1 μg/cm^2/h
CC(C)(Oc1ccc(C(=O)c2ccc(Cl)cc2)cc1)C(=O)OCCN1CCCCC1.Cl [1-piperidineethyl 2-[4-(4-chlorobenzoyl)phenoxy]-2-methyl-propinate. HCl salt],apparent flux (in vitro penetration rate),[1],590 μg/cm^2/h
CCN(CC)CCOC(=O)Cc1cccc(C(=O)c2ccc(Br)cc2)c1N.Cl [diethylaminoethyl 2-amino-3-(4-bromo-benzoyl)benzeneacetate.HCl],time until lesions healed after the application,[2],10 days
"CC(C)(Oc1ccc(C(=O)c2ccc(Cl)cc2)cc1)C(=O)[O-].[Na+] [2-[4-(4-chlorobenzoyl)phenoxy]-2-methyl-propinic acid sodium salt, reference compound]",apparent flux (in vitro penetration rate),[1],1 μg/cm^2/h
CCN(CC)CCOC(=O)C[C@@H](CNC(=O)c1ccccc1)CC(C)C.Cl [diethylaminoethyl (S)-3-(benzoylaminomethyl)-5-methylhexanoate.HCl salt],apparent flux (in vitro penetration rate),[1]; [5],650 μg/cm^2/h
CCN(CC)CCOC(=O)Cc1cn(-c2ccccc2)nc1-c1ccc(Cl)cc1.Cl [diethylaminoethyl 3-(4-chlorophenyl)-1-phenyl-1H-pyrazole-4-acetate.HCl],time until lesions healed after the application,[2],10 days
"Cc1ccc(C)c(OCCCC(C)(C)C(=O)[O-])c1.[Na+] [5-(2,5-dimethylphenoxy)-2,2-dimethylpentanoic acid sodium salt, reference compound]",apparent flux (in vitro penetration rate),"[1]; human, 10 % solution in water",1 μg/cm^2/h
"CC(=O)N[C@@H](Cc1ccc(OC(C)=O)c(OC(C)=O)c1)C(=O)[O-].[Na+] [N-acetyl-3-(3,4-diacetyloxy-phenyl-L-alaninesodium salt, reference compound]",apparent flux (in vitro penetration rate),[1],1 μg/cm^2/h
CCN(CC)CCOC(=O)Cc1sc(-c2ccccc2)nc1-c1ccc(Cl)cc1.Cl [diethylaminoethyl 4-(4-chlorophenyl)-2-phenyl-5-thiazoleacetate.HCl],time until lesions healed after the application,[2],10 days
"CCc1cccc2c3c([nH]c12)C(CC)(CC(=O)OCCN(CC)CC)OCC3.Cl (stereo not shown) [diethylaminoethyl 1,8-diethyl-1,3,4,9-tetrahydropyrano-[3,4-b]indole-1-acetate.HCl]",time until lesions healed after the application,[2],10 days
CCN(CC)CCOC(=O)COC(=O)Cc1c(C)n(C(=O)c2ccc(Cl)cc2)c2ccc(OC)cc12.Cl [diethylaminoethyl 1-(4-chlorobenzoyl-5-methoxy-2-methyl-1H-indole-3-acetoxyacetate. HCl],time until lesions healed after the application,[2],10 days
"CC(C)C[C@H](CNC(=O)c1ccccc1)CC(=O)[O-].[Na+] [(S)-3-(benzoylaminomethyl)-5-methylhexanoic acid sodium salt, reference compound]",apparent flux (in vitro penetration rate),[1]; [5],1 μg/cm^2/h
"CCN(CC)CCOC(=O)c1ccccc1OC(=O)c1ccccc1O.Cl [P-9, diethylaminoethyl salicylsalicylate.HCl salt]","Cholesterol (total), Day 1",SLAC/DB/DB obese mice,7.7 ± 0.5 mmol/L
same,"Cholesterol (total), Week 5",SLAC/DB/DB obese mice,4.9 ± 0.5 mmol/L
same,"Triglycerides, Day 1",SLAC/DB/DB obese mice,4.1 ± 0.4 mmol/L
same,"Triglycerides, Week 5",SLAC/DB/DB obese mice,2.1 ± 0.3 mmol/L
same,"blood glucose, Day 1",SLAC/DB/DB obese mice,14.1 ± 2.5 mmol/L
same,"blood glucose, Week 5",SLAC/DB/DB obese mice,8.7 ± 2.3 mmol/L
same,"blood glucose, Baseline",[3],16.5 ± 3.6 mmol/L
same,"blood glucose, Average",[3],8.4 ± 1.9 mmol/L
same,"blood glucose, Average (Week 2-5)",[4],9.4 ± 2.7 mmol/L
same,"blood glucose, Day 1",[4],16.4 ± 2.3 mmol/L
same,"blood glucose, Average (Week 2-5)",normal SD rats (SLAC/SD),5.6 ± 1.2 mmol/L
same,"blood glucose, Day 1",normal SD rats (SLAC/SD),5.5 ± 1.3 mmol/L
"CC(=O)Oc1ccc(-c2ccc(F)cc2F)cc1C(=O)O.CCN(CC)CCOC(=O)c1cc(-c2ccc(F)cc2F)ccc1OC(C)=O [P-8, diethylaminoethyl 5-(2,4-difluorophenyl)acetylsalicylate.5-(2,4-difluorophenyl)acetylsalicylic acid salt]","Cholesterol (total), Day 1",SLAC/DB/DB obese mice,6.8 ± 0.4 mmol/L
same,"Cholesterol (total), Week 5",SLAC/DB/DB obese mice,5.0 ± 0.2 mmol/L
same,"Triglycerides, Day 1",SLAC/DB/DB obese mice,4.4 ± 0.4 mmol/L
same,"Triglycerides, Week 5",SLAC/DB/DB obese mice,2.2 ± 0.4 mmol/L
same,"blood glucose, Day 1",SLAC/DB/DB obese mice,14.5 ± 2.7 mmol/L
same,"blood glucose, Week 5",SLAC/DB/DB obese mice,8.4 ± 2.1 mmol/L
same,"blood glucose, Baseline",[3],19.4 ± 3.1 mmol/L
same,"blood glucose, Average",[3],9.7 ± 1.4 mmol/L
same,"blood glucose, Average (Week 2-5)",[4],8.3 ± 2.1 mmol/L
same,"blood glucose, Day 1",[4],16.9 ± 2.8 mmol/L
same,"blood glucose, Average (Week 2-5)",normal SD rats (SLAC/SD),5.7 ± 1.2 mmol/L
same,"blood glucose, Day 1",normal SD rats (SLAC/SD),5.6 ± 1.5 mmol/L
"CCN(CC)CCCOC(=O)[C@@H](Cc1cc(I)c(Oc2cc(I)c(O)c(I)c2)c(I)c1)NC(C)=O.Cl [diethylaminopropyl N-acetyl-D-3,5,3′,5′-tetraiodothyronine.HCl salt]",apparent flux (in vitro penetration rate),[1],480 μg/cm^2/h
